Data as given in patent US20040009899A1, “Treating dominant disorders” (priority 2002, published 2004).

Assays:
Assay type in all cases: in vivo, mouse
R6/2 mice [1] = experiment: Bar test to assess motor skill; conditions: compared to untreated or saline treated R6/2 mice
From the text: Bar test to assess motor skill: Each mouse was held by its tail and allowed to grasp a bar (0.25 cm in diameter, 60 cm long) suspended 30 cm above a padded bench. After the mouse had firmly grasped the bar, the test was begun by releasing its tail. The mouse was allowed two minutes to “escape” by climbing along the bar to one of the bar supports. The mouse was given both performance and time ratings. Performance ratings were based on the following scale: 0, unable to hold bar; 1, holds bar, unable to bring hind limbs to bar; 2, holds bar, draws hind limbs to bar (i.e., 3 paws firmly on bar); 3, holds bar, moves along bar (i.e., moves at least 2 inches in a coordinated manner along bar); 4, escapes (i.e., mouse touches a bar support with one paw). Time ratings were based on the following scale: 0, unable to hold bar (0-3 seconds); 1, holds bar for 4-30 seconds; 2, holds bar for 31-60 seconds; 3, holds bar for 61-90 seconds; 4, holds bar for 91-120 seconds. If the mouse had not reached one of the bar supports by the end of the two minute test period it was removed from the bar. […]
(§1) At 9 weeks of age, the mice in each group received saline (group 1) or HDs at 2.0 mg/kg, 5.0 mg/kg, or 20.0 mg/kg (groups 2, 3, and 4, respectively) by i.p. injection every 48 hours. […] Weight stability, clasping behavior, motility, and motor skill were assessed weekly during the treatment period. […]

GAPDH = experiment: Western immunoblot of GAPDH (non-targeted gene) in PNA-treated R6/1 mice; conditions: any animal tested
Procedure: Following the treatment period, mice were anesthetized with ether and sacrificed by cervical dislocation. Whole brains and livers were removed and placed in 0.9% saline. Striatum tissue was dissected from whole brains, and liver tissue was finely minced. The tissues were placed in separate 2 mL microfuge tubes on dry ice and then suspended in 20 volumes of RIPA buffer (50 mM Tris pH 8, 150 mM NaCl, 1 mM EDTA, 1 mM EGTA, 0.5% sodium deoxycholate, 0.1% SDS, 1% TritonX-100, 2 μg/mL leupeptin, 2 μg/mL aprotinin, 1 μg/mL pepstatin, 1 mM phenylmethylsulfonylfluoride) per gram of tissue. Suspended tissues were homogenized by sonication, and the homogenates were clarified by centrifugation at 12,000×g for 20 minutes at 4° C. Following centrifugation, the supernatants were removed and protein concentrations were quantified by Bradford assays using a BSA standard.
Immunoblotting: Supernatants from the tissue homogenates were mixed with 1/6 volume of 6×SDS sample buffer (350 mM Tris pH 6.8, 10% SDS, 30% glycerol, 15% 2-mercaptoethanol, 0.012% bromophenol blue). Equal amounts of protein were directly loaded onto 10% acrylamide/0.05% bisacrylamide gels without heat denaturation. […] Protein bands were detected on film by chemiluminescence. […]

R6/2 mice [2] = experiment: Clasping test; conditions: any group (2.0, 5.0 or 20.0 mg/kg i.p. every 48 hours)
Procedure: Clasping test: Dystonic movement was assessed using a procedure adapted from Yamamoto and colleagues (Yamamoto et al., Cell, 101:57-66, 2000). Each animal was suspended by the tail for 15 seconds, and its behavior was videotaped for subsequent analysis. The number and duration of abnormal movements were recorded upon viewing the videotaped behavior. An abnormal movement was defined as any dystonic movement of hindlimbs and/or forelimbs and/or trunk during which the limbs were pulled in toward the body in a manner distinct from that observed in wild-type mice. The duration of dystonic movements was recorded as a percent of total time. Mice were assessed for clasping score and clasping duration. The test period was divided into 2-second increments.
In other experiments, R6/2 mice were divided into five groups (designated groups 1-5) containing eight to ten animals each. Groups 1-4 received either saline (group 1) or a specific amount of HDs (groups 2-4). Group 5 included untreated R6/2 mice. A sixth group included untreated non-transgenic B6CBA control mice. […]
as §1

R6/2 mice [3] = experiment: Body weight of treated R6/2 mice
Procedure: Experiments were conducted to determine whether PNA-mediated inhibition of mutant huntingtin expression increased survival and/or reversed features of pathophysiology. R6/2 and non-transgenic mice were divided into two groups of three to five mice each, and treated with either HDs or ACSF for approximately ten weeks, beginning at five to six weeks of age. Treated animals received a dose of 0.15 mg/kg of the HDs PNA oligomer, administered by continuous infusion through an Alzet pump. All ACSF-treated transgenic mice died by three months of age.
In other experiments, R6/2 mice were divided into five groups (designated groups 1-5) containing eight to ten animals each. Groups 1-4 received either saline (group 1) or a specific amount of HDs (groups 2-4). Group 5 included untreated R6/2 mice. A sixth group included untreated non-transgenic B6CBA control mice. At 8 weeks of age, each mouse was weighed to establish a weight stability baseline. Baselines for clasping behavior, motility, and motor skill were established at 9 weeks of age using the methods described in Example 1.
as §1

HDs: sense PNA oligomer, 14 residues, 5′-GGACTGCCGTGCCG-3′ (SEQ ID NO:3), specific for the expanded human HD allele (all peptide nucleic acid (PNA))
motor skill (bar test) (R6/2 mice [1]; 5.0 mg/kg i.p. every 48 hours): increased motor skill
motor skill (bar test) (R6/2 mice [1]; 20.0 mg/kg i.p. every 48 hours): increased motor skill
inhibition of non-targeted genes such as GAPDH (GAPDH): No measurable inhibition
clasping behavior over the treatment period (R6/2 mice [2]): No significant alterations in clasping behavior
weight stability over the treatment period (R6/2 mice [3]; R6/2 mice, 5.0 mg/kg i.p. every 48 hours, compared to 2.0 mg/kg or 20.0 mg/kg): more stable weight
body weight over time (R6/2 mice [3]; surviving R6/2 mice, 0.15 mg/kg continuous infusion by Alzet pump): continued to gain weight over time
